Laboratory results as given in patent publication US20220249599A1, “TREATMENT OF IMPLANTS WITH ENGINEERED ANTIMICROBIAL AMPHIPHILIC PEPTIDES” (priority 2018, published 2022).
≈ marks a conversion by molar mass, not a printed value. Ends that are not written are not given here.

Columns and labels:
[1] = tested on: Enterococcus faecium (n = 104); test: microbe, parasite or virus in culture
Procedure: Comparator antibiotics were supplied by Micromyx, and stock solutions were prepared on the first day of testing using solvents recommended by CLSI (1). Stock solutions of all compounds were made at 40× the final testing concentration and stored at −80° C. prior to testing. Information regarding compound source, catalog and lot number, testing concentrations and drug diluent for the comparators and test agent are detailed below in Table 3.
The test organisms evaluated in this study consisted of clinical isolates from the Micromyx Repository and reference isolates from the American Type Culture Collection (ATCC; Manassas, Va.). The clinical isolates were obtained from USA hospitals. Upon initial receipt at Micromyx, the organisms were sub-cultured onto an appropriate agar medium. Following incubation, colonies were harvested from these plates and cell suspensions prepared and frozen at −80° C. with a cryoprotectant. Prior to testing, the isolates were streaked from frozen vials onto Trypticase Soy Agar with 5% sheep blood (Becton Dickenson [BD]; Sparks, MD; Lot Nos. 7173618, 7166759, 7208688, 72144895, 7228505 and Remel Lenexa, Kans. Lot No. 212574). Plates were incubated at 35° C. overnight.
Mueller Hinton II broth (MHB II; BD; Lot Nos. 6258541 and 7143896) was used for MIC testing of aerobic organisms.
(§1) MIC values were determined using a broth microdilution procedure described by CLSI (1, 3). Automated liquid handlers (Multidrop 384, Labsystems, Helsinki, Finland; Biomek 2000 and Biomek FX, Beckman Coulter, Fullerton Calif.) were used to conduct serial dilutions and liquid transfers.
To prepare the drug mother plates, which would provide the serial drug dilutions for the replicate daughter plates, the wells of columns 2-12 of standard 96-well microdilution plates (Costar 3795) were filled with 150 µl of the designated diluent for each row of drug. The test articles and comparator compounds ([…] at 40× the highest concentration to be tested) were dispensed into the appropriate wells in column 1. The Biomek 2000 was then used to make 2-fold serial dilutions in the mother plates from column 1 through column 11. The wells of Column 12 contained no drug and served as the organism growth control wells for the assay.
(§2) The daughter plates were loaded with 185 g L per well of MHB II using the Multidrop 384. The daughter plates were completed on the Biomek FX instrument which transferred 5 µL of drug solution from each well of a mother plate to the corresponding well of each daughter plate in a single step. A standardized inoculum of each test organism was prepared per CLSI methods (1). The inoculum for each organism was dispensed into sterile reservoirs divided by length (Beckman Coulter), and the Biomek 2000 was used to inoculate the plates. Daughter plates were placed on the Biomek 2000 work surface in reverse orientation so that inoculation took place from low to high drug concentration.
(§3) Plates were stacked 3-4 high, covered with a lid on the top plate, placed in plastic bags, and incubated at 35° C. for 16 to 20 hrs. Following incubation, the microplates were removed from the incubator and viewed from the bottom using a plate viewer. […] The MIC was read and recorded as the lowest concentration of drug that inhibited visible growth of the organism.
Clinical breakpoints to determine percent resistance within a given organism group were obtained from CLSI (3), with the exception of colistin for K. pneumoniae, Enterobacter spp., and E. coli, which are only available from EUCAST.

[2] = tested on: Staphylococcus aureus (n = 104); test: microbe, parasite or virus in culture; format: cell-based
Procedure: The clinical isolates were obtained from USA hospitals. […] Plates were incubated at 35° C. overnight.

[3] = tested on: Acinetobacter baumannii ATCC BAA-1797 (MDR); test: microbe, parasite or virus in culture; format: cell-based; details: ATCC BAA-1797
Procedure: (§4) Each peptide was formulated in PBS buffer prior to testing. Peptides of SEQ ID NO:5 and SEQ ID NO:8 were brought up in 100% DMSO with 0.002% polysorbate-80 at 1.28 mg/mL (40× the highest final test concentration of 32 mcg/mL). Final test concentration of DMSO was 2.5% in the assay at the first dilution for those two compounds.
(§5) Mueller Hinton II broth (MHB II; BD; Lot Nos. 6258541 and 7143896) was used for MIC testing of aerobic organisms. 0.002% polysorbate 80 (P80) was added to the test medium.
as §1
(§6) To prepare the drug mother plates, which would provide the serial peptide dilutions for the replicate daughter plates, the wells of columns 2-12 of standard 96-well microdilution plates (Costar 3795) were filled with 150 µl of the designated diluent for each row of peptide.
(§7) The test articles and comparator compounds ([…] at 40× the highest concentration to be tested) were dispensed into the appropriate wells in column 1. The Biomek 2000 was then used to make 2-fold serial dilutions in the mother plates from column 1 through column 11. The wells of Column 12 contained no drug and served as the organism growth control wells for the assay.
as §2, with “185 μL” for “185 g L”, “5 uL” for “5 µL”, “of peptide” for “of drug”, “CLSI methods.” for “CLSI methods (1).”
as §3, with “peptide” for “drug”

[4] = tested on: Staphylococcus aureus NRS382 (USA100; HA-MRSA); format: cell-based; details: USA100
Procedure: as §4, §5, §1, §6, §7
as §2, with “185 μL” for “185 g L”, “5 uL” for “5 µL”, “of peptide” for “of drug”, “CLSI methods.” for “CLSI methods (1).”
as §3, with “peptide” for “drug”

[5] = tested on: Staphylococcus aureus ATCC 43300 (MRSA); format: cell-based; details: ATCC 43300
Procedure: as §4, §5, §1, §6, §7
as §2, with “185 μL” for “185 g L”, “5 uL” for “5 µL”, “of peptide” for “of drug”, “CLSI methods.” for “CLSI methods (1).”
as §3, with “peptide” for “drug”

[6] = tested on: Pseudomonas aeruginosa ATCC BAA-2109 (MDR); format: cell-based; details: ATCC BAA-2109
Procedure: as §4, §5, §1, §6, §7
as §2, with “185 μL” for “185 g L”, “5 uL” for “5 µL”, “of peptide” for “of drug”, “CLSI methods.” for “CLSI methods (1).”
as §3, with “peptide” for “drug”

[7] = tested on: Escherichia coli ATCC 35218 (ESBL); format: cell-based; details: ATCC 35218
Procedure: as §4, §5, §1, §6, §7
as §2, with “185 μL” for “185 g L”, “5 uL” for “5 µL”, “of peptide” for “of drug”, “CLSI methods.” for “CLSI methods (1).”
as §3, with “peptide” for “drug”

[8] = tested on: Pseudomonas aeruginosa ATCC 27853 (non-MDR; QC); format: cell-based; details: ATCC 27853
Procedure: as §4, §5, §1, §6, §7
as §2, with “185 μL” for “185 g L”, “5 uL” for “5 µL”, “of peptide” for “of drug”, “CLSI methods.” for “CLSI methods (1).”
as §3, with “peptide” for “drug”

[9] = tested on: Klebsiella pneumoniae ATCC BAA-1705 (KPC); format: cell-based; details: ATCC BAA-1705
Procedure: as §4, §5, §1, §6, §7
as §2, with “185 μL” for “185 g L”, “5 uL” for “5 µL”, “of peptide” for “of drug”, “CLSI methods.” for “CLSI methods (1).”
as §3, with “peptide” for “drug”

[10] = tested on: Escherichia coli ATCC 25922 (QC); format: cell-based; details: ATCC 25922
Procedure: as §4, §5, §1, §6, §7
as §2, with “185 μL” for “185 g L”, “5 uL” for “5 µL”, “of peptide” for “of drug”, “CLSI methods.” for “CLSI methods (1).”
as §3, with “peptide” for “drug”

[11] = tested on: Staphylococcus aureus ATCC 29213 (MSSA; QC); format: cell-based; details: ATCC 29213
Procedure: as §4, §5, §1, §6, §7
as §2, with “185 μL” for “185 g L”, “5 uL” for “5 µL”, “of peptide” for “of drug”, “CLSI methods.” for “CLSI methods (1).”
as §3, with “peptide” for “drug”

[12] = tested on: Enterococcus faecalis ATCC 29212 (VSE; QC); format: cell-based; details: ATCC 29212
Procedure: as §4, §5, §1, §6, §7
as §2, with “185 μL” for “185 g L”, “5 uL” for “5 µL”, “of peptide” for “of drug”, “CLSI methods.” for “CLSI methods (1).”
as §3, with “peptide” for “drug”

[13] = tested on: Enterococcus faecium ATCC 51559 (VRE); format: cell-based; details: ATCC 51559
Procedure: as §4, §5, §1, §6, §7
as §2, with “185 μL” for “185 g L”, “5 uL” for “5 µL”, “of peptide” for “of drug”, “CLSI methods.” for “CLSI methods (1).”
as §3, with “peptide” for “drug”

[14] = tested on: Escherichia coli ATCC BAA-2471 (NDM-1); format: cell-based; details: ATCC BAA-2471
Procedure: as §4, §5, §1, §6, §7
as §2, with “185 μL” for “185 g L”, “5 uL” for “5 µL”, “of peptide” for “of drug”, “CLSI methods.” for “CLSI methods (1).”
as §3, with “peptide” for “drug”

[15] = tested on: Acinetobacter baumannii ATCC 19606 (non-MDR); format: cell-based; details: ATCC 19606
Procedure: as §4, §5, §1, §6, §7
as §2, with “185 μL” for “185 g L”, “5 uL” for “5 µL”, “of peptide” for “of drug”, “CLSI methods.” for “CLSI methods (1).”
as §3, with “peptide” for “drug”

[16] = tested on: Enterococcus faecalis ATCC 700802 (V583 VRE); format: cell-based; details: ATCC 700802
Procedure: as §4, §5, §1, §6, §7
as §2, with “185 μL” for “185 g L”, “5 uL” for “5 µL”, “of peptide” for “of drug”, “CLSI methods.” for “CLSI methods (1).”
as §3, with “peptide” for “drug”

[17] = tested on: Streptococcus pneumoniae ATCC 49619 (QC); format: cell-based; details: ATCC 49619
Procedure: as §4, §5, §1, §6, §7
as §2, with “185 μL” for “185 g L”, “5 uL” for “5 µL”, “of peptide” for “of drug”, “CLSI methods.” for “CLSI methods (1).”
as §3, with “peptide” for “drug”

[18] = tested on: Streptococcus pyogenes ATCC 49399; format: cell-based; details: ATCC 49399
Procedure: as §4, §5, §1, §6, §7
as §2, with “185 μL” for “185 g L”, “5 uL” for “5 µL”, “of peptide” for “of drug”, “CLSI methods.” for “CLSI methods (1).”
as §3, with “peptide” for “drug”

MIC [3]	MIC [4]	MIC [5]	MIC [6]	MIC [7]	MIC [8]	MIC [9]	MIC [10]	MIC [11]	MIC [12]	MIC [13]	MIC [14]	MIC [15]	MIC [16]	MIC [17]	MIC [18]	Molecule	further results
–	–	–	–	–	–	–	–	–	–	–	–	–	–	–	–	CN[C@H](CC(C)C)C(=O)N[C@H]1C(=O)N[C@@H](CC(N)=O)C(=O)N[C@H]2C(=O)N[C@H]3C(=O)N[C@H](C(=O)N[C@H](C(=O)O)c4cc(O)cc(O)c4-c4cc3ccc4O)[C@H](O)c3ccc(c(Cl)c3)Oc3cc2cc(c3O[C@@H]2O[C@H](CO)[C@@H](O)[C@H](O)[C@H]2O[C@H]2C[C@](C)(N)[C@H](O)[C@H](C)O2)Oc2ccc(cc2Cl)[C@H]1O [Vancomycin]	MIC50 ([1]; Enterococcus faecium): 1 µg/mL (≈ 0.69 µM); MIC90 ([1]; Enterococcus faecium): > 32 µg/mL; MIC90 ([1]; Enterococcus faecium (n = 104)): >32 µg/mL; % R (isolates resistant) ([1]; Enterococcus faecium (n = 104), CLSI breakpoints): 47.1%; MIC ([1]; Enterococcus faecium, read-out: Mode (MIC)): > 32 µg/mL; MIC50 ([2]; Staphylococcus aureus): 1 µg/mL (≈ 0.69 µM); MIC90 ([2]; Staphylococcus aureus): 1 µg/mL (≈ 0.69 µM); % R (isolates resistant) ([2]; Staphylococcus aureus (n = 104), CLSI breakpoints): 0%; MIC range ([2]; Staphylococcus aureus (n = 104), all methicillin-resistant): 0.5 to 2 µg/mL; MIC ([2]; Staphylococcus aureus, read-out: Mode (MIC)): 1 µg/mL (≈ 0.69 µM)
8 µg/mL	4 µg/mL	4 µg/mL	4 µg/mL	8 µg/mL	8 µg/mL	32 µg/mL	4 µg/mL	8 µg/mL	8 µg/mL	4 µg/mL	4 µg/mL	8 µg/mL	8 µg/mL	16 µg/mL	16 µg/mL	IRRIIRRIRRIIRRIRRIIRR [SEQ ID NO: 4]	–
16 µg/mL	8 µg/mL	8 µg/mL	2 µg/mL	4 µg/mL	4 µg/mL	32 µg/mL	4 µg/mL	8 µg/mL	32 µg/mL	4 µg/mL	4 µg/mL	8 µg/mL	>32 µg/mL	32 µg/mL	16 µg/mL	IRRRIRRIRRRIRRIRRRIRR [SEQ ID NO: 3]	–
